pIC50: −log10 of the molar value. Calls of active or inactive are those of the source. The rule behind the calls is not given here.
Experiments:
[1] = system: MCF7; assay: Cytotoxicity against human MCF7 cells assessed as inhibition of cell growth at 10 ug/ml incubated for 48 hrs by MTT assay; format: functional, cell-based
[2] = system: K562; assay: Cytotoxicity against human K562 cells assessed as inhibition of cell growth at 10 ug/ml incubated for 48 hrs by MTT assay; format: functional, cell-based
[3] = system: A549; assay: Cytotoxicity against human A549 cells assessed as inhibition of cell growth at 10 ug/ml incubated for 48 hrs by MTT assay; format: functional, cell-based
[4] = system: HepG2; assay: Cytotoxicity against human HepG2 cells assessed as inhibition of cell growth at 10 ug/ml incubated for 48 hrs by MTT assay; format: functional, cell-based
[5] = system: SK-OV-3; assay: Cytotoxicity against human SKOV3 cells assessed as inhibition of cell growth at 10 ug/ml incubated for 48 hrs by MTT assay; format: functional, cell-based
[6] = system: PANC-1; assay: Cytotoxicity against human PANC1 cells assessed as inhibition of cell growth at 10 ug/ml incubated for 48 hrs by MTT assay; format: functional, cell-based
[7] = system: A-375; assay: Cytotoxicity against human A375 cells assessed as inhibition of cell growth at 10 ug/ml incubated for 48 hrs by MTT assay; format: functional, cell-based
[8] = system: HeLa; assay: Cytotoxicity against human HeLa cells assessed as inhibition of cell growth at 10 ug/ml incubated for 48 hrs by MTT assay; format: functional, cell-based
[9] = cells; format: functional, cell-based; settings: Homo sapiens, Huh-7, 48 h
Description: Cytotoxicity against human HuH7 cells assessed as inhibition of cell growth incubated for 48 hrs by MTT assay

[10] = cells; format: functional, cell-based; settings: Homo sapiens, HCCC9810, 48 h
Description: Cytotoxicity against human HCCC9810 cells assessed as inhibition of cell growth incubated for 48 hrs by MTT assay

[11] = system: MDA-MB-468; assay: cells; format: functional, cell-based; settings: Homo sapiens, MDA-MB-468, 48 h
Description: Cytotoxicity against human MDA-MB-468 cells assessed as inhibition of cell growth incubated for 48 hrs by MTT assay

[12] = system: MDA-MB-231; assay: cells; format: functional, cell-based; settings: Homo sapiens, MDA-MB-231, 48 h
Description: Cytotoxicity against human MDA-MB-231 cells assessed as inhibition of cell growth incubated for 48 hrs by MTT assay

[13] = system: MCF7; assay: cells; format: functional, cell-based; settings: Homo sapiens, MCF7, 48 h
Description: Cytotoxicity against human MCF7 cells assessed as inhibition of cell growth incubated for 48 hrs by MTT assay

[14] = system: HepG2; assay: cells; format: functional, cell-based; settings: Homo sapiens, HepG2, 48 h
Description: Cytotoxicity against human HepG2 cells assessed as inhibition of cell growth incubated for 48 hrs by MTT assay

[15] = system: HeLa; assay: Induction of apoptosis in human HeLa cells incubated for 24 hrs by Annexin V-FITC/PI staining based flow cytometry (reference value: 3.37%); format: functional
[16] = system: MCF7; assay: Induction of apoptosis in human MCF7 cells at 50 uM incubated for 24 hrs by Hoechst 33342 staining; format: functional, cell-based
[17] = system: HeLa; assay: Induction of apoptosis in human HeLa cells incubated for 12 hrs by Annexin V-FITC/PI staining based flow cytometry (reference value: 3.37%); format: functional
[18] = system: MCF7; assay: Induction of apoptosis in human MCF7 cells assessed as increase in PARP cleavage incubated for 24 hrs by Western blotting method; format: functional, cell-based

| Structure (SMILES) | growth inhibition (GI) [1] | growth inhibition (GI) [2] | growth inhibition (GI) [3] | growth inhibition (GI) [4] | growth inhibition (GI) [5] | growth inhibition (GI) [6] | growth inhibition (GI) [7] | growth inhibition (GI) [8] | pIC50 [9] | pIC50 [10] | pIC50 [11] | pIC50 [12] | pIC50 [13] | pIC50 [14] | Activity [15] | Activity [16] | Activity [17] | Activity [18] |
| --- | --- | --- | --- | --- | --- | --- | --- | --- | --- | --- | --- | --- | --- | --- | --- | --- | --- | --- |
| O=C1OC(c2ccccc2)=N[C@@]12[C@H](c1ccccc1)CN[C@]21C(=O)Nc2ccccc21 | Active | Active | Active | Active | Active | Active | Active | Active | – | – | – | – | – | – | – | – | – | – |
| CN1C[C@@H](c2ccccc2)[C@@]2(N=C(c3ccccc3)OC2=O)[C@@]12C(=O)Nc1ccccc12 | Active | Active | Active | Active | Active | Active | Active | Active | – | – | – | – | – | – | – | – | – | – |
| CN1C[C@@H](c2ccccc2)[C@@]2(N=C(c3ccccc3)OC2=O)[C@@]12C(=O)N(Cc1ccccc1)c1ccccc12 | Active | Active | Active | Active | Active | Active | Active | Active | – | – | – | – | – | – | – | – | – | – |
| O=C1OC(c2ccccc2)=N[C@@]12[C@H](c1ccc(Cl)c(Cl)c1)[C@H]1CCCN1[C@]21C(=O)Nc2ccccc21 | Active | Active | Active | Active | Active | Active | Active | Active | – | – | – | – | – | – | – | – | – | – |
| COc1cc([C@@H]2[C@H]3CCCN3[C@]3(C(=O)N(Cc4ccccc4)c4ccccc43)[C@]23N=C(c2ccccc2)OC3=O)cc(OC)c1OC | Active | Active | Active | Active | Active | Active | Active | Active | – | – | – | – | – | – | – | – | – | – |
| CN1C[C@@H](c2ccco2)[C@@]2(N=C(c3ccccc3)OC2=O)[C@@]12C(=O)N(Cc1ccccc1)c1ccccc12 | Active | Active | Active | Active | Active | Active | Active | Active | – | – | – | – | – | – | – | – | – | – |
| CN1C(=O)[C@@]2(c3ccccc31)N(C)C[C@@H](c1cccc(Cl)c1)[C@@]21N=C(c2ccccc2)OC1=O | Active | Active | Active | Active | Active | Active | Active | Active | – | – | – | – | – | – | – | – | – | – |
| CN1C[C@@H](c2ccc(Cl)c(Cl)c2)[C@@]2(N=C(c3ccccc3)OC2=O)[C@@]12C(=O)N(Cc1ccccc1)c1ccccc12 | Active | Active | Active | Active | Active | Active | Active | Active | – | – | – | – | – | – | – | – | – | – |
| CNC(=O)c1cc(Oc2ccc(NC(=O)Nc3ccc(Cl)c(C(F)(F)F)c3)cc2)ccn1 [SORAFENIB] | – | – | – | – | – | – | – | – | 5.15 | < 5.00 | 5.31 | 5.29 | 5.26 | 5.17 | – | – | – | – |
| O=C1OC(c2ccccc2)=N[C@@]12[C@H](c1ccccc1)[C@H]1CSCN1[C@]21C(=O)Nc2ccccc21 | Active | Active | Active | Active | Active | Active | Active | Active | – | – | – | – | – | – | – | – | – | – |
| O=C1OC(c2ccccc2)=N[C@@]12[C@H](c1ccccc1)[C@H]1CCCN1[C@]21C(=O)N(Cc2ccccc2)c2ccccc21 | Active | Active | Active | Active | Active | Active | Active | Active | – | – | – | – | – | – | – | – | – | – |
| O=C1OC(c2ccccc2)=N[C@@]12[C@H](c1ccc(C(F)(F)F)cc1)[C@H]1CCCN1[C@]21C(=O)Nc2ccccc21 | Active | Active | Active | Active | Active | Active | Active | Active | 5.10 | 5.14 | 5.47 | 5.38 | 5.09 | 5.06 | 44.64% | Active | 16.17% | Active |
| O=C1OC(c2ccccc2)=N[C@@]12[C@H](c1cccc(Cl)c1)[C@H]1CCCN1[C@]21C(=O)Nc2ccc(Cl)cc21 | Active | Active | Active | Active | Active | Active | Active | Active | – | – | – | – | – | – | – | – | – | – |
| O=C1OC(c2ccccc2)=N[C@@]12[C@H](c1ccc(Cl)c(Cl)c1)[C@H]1CCCN1[C@]21C(=O)N(Cc2ccccc2)c2ccccc21 | Active | Active | Active | Active | Active | Active | Active | Active | – | – | – | – | – | – | – | – | – | – |
| O=C1OC(c2ccccc2)=N[C@@]12[C@H](c1ccccc1)[C@H]1CCCN1[C@]21C(=O)Nc2ccccc21 | Active | Active | Active | Active | Active | Active | Active | Active | – | – | – | – | – | – | – | – | – | – |
| O=C1OC(c2ccccc2)=N[C@@]12[C@H](c1cccc(Cl)c1)[C@H]1CCCN1[C@]21C(=O)Nc2ccccc21 | Active | Active | Active | Active | Active | Active | Active | Active | – | – | – | – | – | – | – | – | – | – |

From ChEMBL document CHEMBL3603792, “The discovery of oxazolones-grafted spirooxindoles via three-component diversity oriented synthesis and their preliminary biological evaluation” (Bioorg Med Chem Lett, 2015)
